Consider 1 compound from PMC10137179, “Assessment of Covalently Binding Warhead Compounds in the Validation of the Cytomegalovirus Nuclear Egress Complex as an Antiviral Target” (Cells, 2023).

Common to all, as to type: cell-based
Assay [1] deals with T1, EBV HA-BFRF1 + Flag-BFLF2 (Epstein-Barr virus, UniProt P03185+P0CK47).
T1 construct: expressed in transfected cells; host or cells: HeLa
Description: Confocal imaging of core NEC localization in cotransfected HeLa cells, EBV. Particulars: 4 µM, 3 d p.t. The method, then: (§1) HFF or HFF-UL50 cells, either Dox-induced or uninduced, were seeded in 6-well plates with a density of 2 × 10^5 cells per well, grown on coverslips and infected with HCMV AD169 or AD169 ∆UL50-ΣUL53. For infection experiments with the recombinant virus, different Shield-1 and Dox conditions were analyzed. Antivirals were added post-infection as described for the experiments. For transfection experiments, HeLa cells were seeded on coverslips in 6-well plates with a density of 3.25 × 10^5 cells per well for cotransfection with the indicated NEC expression plasmids (HSV-1 HA-UL34 + Flag-UL31, HCMV pUL50-HA + pUL53-Flag and EBV HA-BFRF1 + Flag-BFLF2). At indicated time points after virus infection, or 3 days post-transfection, cells were fixed, applied for IF staining as described previously and analyzed using a TCS SP5 confocal laser-scanning microscope with Leica LAS AF software (Leica Microsystems, Wetzlar, Germany). […] The device features a Leica photomultiplier tube (PMT) and a hybrid detector (HyD). Images were further processed using Photoshop CS5 (Adobe Inc., San José, CA, USA). […] Microscopic counting was performed for quantitation of colocalization patterns of two different proteins, as achieved by counting 50 cells per biological triplicate. […]

For assay [2], the target named is T2, HSV-1 HA-UL34 + Flag-UL31 (Human herpesvirus 1, UniProt P10215+P10218).
T2 construct: expressed in transfected cells; host or cells: HeLa
T2 sequence (P10215 whole entry): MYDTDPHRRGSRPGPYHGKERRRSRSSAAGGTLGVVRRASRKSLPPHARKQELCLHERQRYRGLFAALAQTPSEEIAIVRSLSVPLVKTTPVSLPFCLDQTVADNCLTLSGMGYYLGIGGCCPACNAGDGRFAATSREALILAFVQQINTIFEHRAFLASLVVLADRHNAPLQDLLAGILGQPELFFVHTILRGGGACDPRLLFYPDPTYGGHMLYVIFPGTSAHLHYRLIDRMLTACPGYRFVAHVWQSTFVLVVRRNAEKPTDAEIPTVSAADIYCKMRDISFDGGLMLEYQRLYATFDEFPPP
T2 sequence (P10218 whole entry): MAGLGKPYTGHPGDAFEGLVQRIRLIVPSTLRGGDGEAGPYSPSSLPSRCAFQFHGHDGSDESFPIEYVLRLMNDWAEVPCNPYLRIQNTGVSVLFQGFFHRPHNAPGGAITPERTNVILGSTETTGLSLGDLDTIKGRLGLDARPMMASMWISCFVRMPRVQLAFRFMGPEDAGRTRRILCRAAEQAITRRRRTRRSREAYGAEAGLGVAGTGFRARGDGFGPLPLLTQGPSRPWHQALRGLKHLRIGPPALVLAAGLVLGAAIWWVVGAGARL
Description: Confocal imaging of core NEC localization in cotransfected HeLa cells, HSV-1. As to conditions: 4 µM, 3 d p.t. Here is the method:
as §1

The next assay relates to HCMV AD169 (WT). The experiment in a line: qPCR-based replication assay, parental HCMV AD169 (WT) in HFF-UL50 cells. The method, then:
The viral genome copy number in cell culture supernatants was determined by IE1-specific quantitative real-time PCR (qPCR) as described previously. […] For the qPCR reactions, aliquots of infected-cell supernatants were incubated with proteinase K (Sigma-Aldrich, St. Louis, MO, USA) at 56 °C for 1 h in order to release the viral DNA. After a denaturation step at 95 °C for 5 min, the DNA samples were optionally stored at 4 °C or directly used for qPCR, as performed in a 25 µL reaction mixture containing 5 µL of either the sample or the standard DNA solution. Additional components of the reaction mixture were 12.5 µL 2× TaqMan PCR Mastermix (Applied Biosystems, Waltham, MA, USA), 7.5 pmol of each primer (5′-[…]-3′) and 5′-[…]-3′) and 5 pmol probe directed against the HCMV MIE region exon 4 (5′-[…]-3′), which was labeled with 6-carboxyfluorescein reporter dye and 6-carboxytetramethylrhodamine quencher dye. The DNA standard for quantification was prepared by serial dilutions of an MIE-inserted plasmid. The thermal cycling conditions consisted of two initial steps of 2 min at 50 °C and 10 min at 95 °C followed by 40 amplification cycles (15 s at 95 °C, 1 min 60 °C). Reactions were performed with an ABI Prism 7700 sequence detector (Applied Biosystems, Waltham, MA, USA).
To this end, the conditional expression system of the HCMV ΔUL50-ΣUL53 recombinant was applied. […] The relative differences in viral replication efficiencies, under these four chosen conditions, were normalized by two means, namely, by using the same conditions in the DMSO control panel (±S, ±D) and by evaluating viral replication in percentage values (% DMSO).
HFF-UL50 cells were cultivated in 96-well plates and infected with (A,B) HCMV ∆UL50-ΣUL53, with (C) parental HCMV AD169 (WT), using adjusted genome copy numbers, or remained uninfected (mock). Viral input was adjusted to 1 × 10^5 copies per well. […] Dox was refreshed every second day. At 14 d p.i., supernatants were harvested, and viral genome equivalents were determined using HCMV IE1-specific qPCR. […]

Where two headings read alike, the source gives them in different places.

T1 sequence (P03185 whole entry): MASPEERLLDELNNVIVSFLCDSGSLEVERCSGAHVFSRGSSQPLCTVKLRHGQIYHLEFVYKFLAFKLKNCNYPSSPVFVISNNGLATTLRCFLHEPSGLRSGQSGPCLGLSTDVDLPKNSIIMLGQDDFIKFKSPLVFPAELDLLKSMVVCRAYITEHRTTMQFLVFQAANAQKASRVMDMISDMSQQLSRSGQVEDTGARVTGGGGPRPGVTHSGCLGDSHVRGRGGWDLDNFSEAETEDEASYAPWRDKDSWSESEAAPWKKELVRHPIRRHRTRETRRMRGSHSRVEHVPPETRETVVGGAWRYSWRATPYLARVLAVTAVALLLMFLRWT
T1 sequence (P0CK47 whole entry): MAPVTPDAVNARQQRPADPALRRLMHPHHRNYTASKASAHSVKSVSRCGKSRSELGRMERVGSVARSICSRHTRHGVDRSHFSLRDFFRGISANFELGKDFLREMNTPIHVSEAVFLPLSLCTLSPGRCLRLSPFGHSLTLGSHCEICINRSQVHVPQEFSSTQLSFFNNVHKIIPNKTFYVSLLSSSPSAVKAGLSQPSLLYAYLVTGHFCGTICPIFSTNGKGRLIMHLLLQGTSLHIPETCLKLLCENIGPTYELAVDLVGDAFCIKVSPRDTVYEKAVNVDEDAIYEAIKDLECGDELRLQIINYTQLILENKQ

Take `C=CC(=O)N1CCC[C@@H](n2nc(-c3ccc(Oc4ccccc4)cc3)c3c(N)ncnc32)C1` [ibrutinib]: the “core NEC nuclear rim localization (in words)” value in assay [1] and in assay [2] was “did not show any similar alteration in nuclear rim localization” throughout. Further, the EC50 is 2.3 ± 1.8 µM in the assay with HCMV AD169 (WT) (Human betaherpesvirus 5, AD169, 336 h, AD169 WT, +S+D, 14 d p.i., qPCR, read-out: EC50); 2.5 ± 2.8 µM in the assay with HCMV AD169 (WT) (Human betaherpesvirus 5, AD169, 336 h, AD169 WT, -S-D, 14 d p.i., qPCR, read-out: EC50); 2.4 µM in the assay on HCMV AD169 (WT) (Human betaherpesvirus 5, AD169, parental HCMV AD169, qPCR-based assays, mean, read-out: mean EC50).
